Measured values from patent EP4534147A1, “STING ANTAGONIST COMPOUNDS” (Sulis Therapeutics ApS, priority 2023, dated 2025).

Legend:
STING = biological target: T1, STING (Homo sapiens, UniProt Q86WV6); test: Human FB STING antagonist assay (IFN-a/b release); assay type: cell-based; conditions: Human skin fibroblasts, 2h pre-treatment, 300 nM GSK STING agonist (CAS number: 2138299-34-8) for 20 h, release of IFN-a/b by HEK-Blue IFN-α/β bioassay
T1 construct: endogenous in cells; host or cells: human skin fibroblasts
T1 sequence (Q86WV6 whole entry): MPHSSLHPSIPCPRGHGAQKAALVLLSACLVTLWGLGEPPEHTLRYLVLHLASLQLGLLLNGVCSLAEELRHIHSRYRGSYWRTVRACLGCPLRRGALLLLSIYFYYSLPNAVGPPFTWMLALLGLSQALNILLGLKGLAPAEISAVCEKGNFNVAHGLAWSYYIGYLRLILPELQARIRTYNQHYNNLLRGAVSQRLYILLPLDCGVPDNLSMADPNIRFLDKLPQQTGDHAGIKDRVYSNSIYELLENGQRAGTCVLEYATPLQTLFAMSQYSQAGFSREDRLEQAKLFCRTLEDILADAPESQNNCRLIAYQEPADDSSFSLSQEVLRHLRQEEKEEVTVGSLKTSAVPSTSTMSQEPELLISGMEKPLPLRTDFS
Procedure: STING antagonist activity can be determined by a human fibroblast antagonist assay. For this, human skin fibroblasts are pre-treated for 2h with a serial dilution of the compound, and are then stimulated for 20 hours with 300 nM STING agonist (e.g. from GSK, CAS number: 2138299-34-8). Supernatants are then harvested and assessed for IFN-a/b release, which indicates STING activation. IFN-a/b concentration in the supernatant is determined, e.g. using an IFN-α/β bioassay. IC50 values are calculated using a non-linear regression fitting, variable slope (4 parameters).
Human skin fibroblasts were pre-treated for 2h with a serial dilution of test compound followed by stimulation with mock or 300 nM GSK STING agonist (CAS number: 2138299-34-8). Supernatants were harvested after 20 h of STING agonist stimulation. Release of IFN-a/b was determined using HEK-Blue IFN-α/β bioassay (Invivogen). Cellular viability was assessed using Alamar Blue HS assay. IC50 values were estimated using a non-linear regression fitting, variable slope (4 parameters) in GraphPad Prism 9.3.1.

[1] = biological target: C-terminal domain (CTD) of human STING (Homo sapiens, UniProt Q86WV6); test: STING binding FP assay II (as FP assay I, lower STING concentration); parameters: recombinant human STING protein (155-379); conditions: 7 nM STING in buffer A, 4 nM fluorescein-labelled STING ligand (Probe 1)
Sequence of C-terminal domain (CTD) of human STING (Q86WV6 155-379): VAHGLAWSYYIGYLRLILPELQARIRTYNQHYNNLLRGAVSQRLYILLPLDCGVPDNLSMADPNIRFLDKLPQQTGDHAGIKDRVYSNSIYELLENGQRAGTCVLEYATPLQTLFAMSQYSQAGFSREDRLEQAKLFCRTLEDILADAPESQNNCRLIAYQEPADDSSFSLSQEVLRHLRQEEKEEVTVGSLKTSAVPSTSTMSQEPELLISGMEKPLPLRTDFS
Procedure: The interaction between molecules and the C-terminal domain (CTD) of human STING was evaluated using a competition binding assay. In this assay, recombinant human STING protein (155-379) and a STING binding fluorescent probe were employed. Upon binding of the probe to STING, the rotation of the fluorescent probe is slowed due to the larger molecular size of the protein-bound complex. As a result, emitted light retains its plane of polarization, leading to an increase in fluorescence polarization. Molecules competing for the probe binding site displace the probe, which leads to rapid randomization of the polarization plane of the emitted light and a subsequent decrease in measured fluorescence polarization signal. Change in polarization was measured, allowing a comparative evaluation of the binding affinities of different compounds to the target protein.
The assay was performed in 96-well plates (ThermoFisher, cat.# 237108) containing 100 µl : 10 µL test compound in 10% DMSO and buffer A (150 mM NaCl, 50 mM HEPES pH 7.5, 1 mM DTT) + 90 µL prepared master mix solution of: 4 nM fluorescein-labelled STING ligand (Probe 1; synthesis described above) in buffer A + 0.055% Tween-20 (v/v) and 35 nM STING in buffer A. Post mixing, plates were agitated at 600 rpm and incubated for 20 min at room temperature. Subsequent measurements of the fluorescence polarization signal were made on a BioTek Synergy-H1 plate reader, using a polarization filter; excitation: 485/20 nm, emission: 528/20 nm) with a gain-setting of 75. IC50 values were determined using a standard non-linear regression four-parameter curve fit in Graphpad Prism.
The procedure for STING binding FP assay II is the same as described for STING binding FP assay I, except for a lower STING concentration. In STING binding FP assay II, a concentration of 7 nM STING in buffer A was used.

SMILES | IC50 (STING) [µM] | IC50 [1] [nM]
CCOC(=O)COC(CCn1c(NC(=O)c2cc(C)nn2CC)nc2cc(C(N)=O)ccc21)CCn1c(NC(=O)c2cc(C)nn2CC)nc2cc(C(N)=O)ccc21 [Example 1, Ethyl {3-[5-carbamoyl-2-(1-ethyl-3-methyl-5-pyrazolylcarbonylamino)-1H-1,3-benzimidazol-1-yl]-1-{2-[5-carbamoyl-2-(1-ethyl-3-methyl-5-pyrazolylcarbonylamino)-1H-1,3-benzimidazol-1-yl]ethyl}propoxy}acetate] | 3.2 | 
CCn1nc(C)cc1C(=O)N=c1n(C)c2cc(C(N)=O)ccc2n1CCC(CCn1c(=NC(=O)c2cc(C)nn2CC)n(C)c2cc(C(N)=O)ccc21)OCC(=O)N1CCN(C(C)=O)CC1 (stereo not shown) [Example 12, 1-{3-[2-(4-Acetyl-1-piperazinyl)-2-oxoethoxy]-5-{5-carbamoyl-2-[(1-ethyl-3-methyl-5-pyrazolyl)carbonylimino]-3-methyl-2,3-dihydro-1H-1,3-benzimidazol-1-yl}pentyl}-2-[(1-ethyl-3-methyl-5-pyrazolyl)carbonylimino]-3-methyl-2,3-dihydro-1H-1,3-benzimidazole-5-carboxamide] | 9.8 | 1.7
CCn1nc(C)cc1C(=O)N=c1n(C)c2cc(C(N)=O)ccc2n1CCC(CCn1c(=NC(=O)c2cc(C)nn2CC)n(C)c2cc(C(N)=O)ccc21)OCC(=O)N(CCOC)CCOC (stereo not shown) [Example 13, 1-(3-{[Bis(2-methoxyethyl)carbamoyl]methoxy}-5-{5-carbamoyl-2-[(1-ethyl-3-methyl-5-pyrazolyl)carbonylimino]-3-methyl-2,3-dihydro-1H-1,3-benzimidazol-1-yl}pentyl)-2-[(1-ethyl-3-methyl-5-pyrazolyl)carbonylimino]-3-methyl-2,3-dihydro-1H-1,3-benzimidazole-5-carboxamide] | 7.8 | 2
CCn1nc(C)cc1C(=O)N=c1n(C)c2cc(C(N)=O)ccc2n1CCC(CCn1c(=NC(=O)c2cc(C)nn2CC)n(C)c2cc(C(N)=O)ccc21)OCC(=O)N(C(C)C)C(C)C (stereo not shown) [Example 21, 1-(3-{[Bis(isopropyl)carbamoyl]methoxy}-5-{5-carbamoyl-2-[(1-ethyl-3-methyl-5-pyrazolyl)carbonylimino]-3-methyl-2,3-dihydro-1H-1,3-benzimidazol-1-yl}pentyl)-2-[(1-ethyl-3-methyl-5-pyrazolyl)carbonylimino]-3-methyl-2,3-dihydro-1H-1,3-benzimidazole-5-carboxamide] |  | 4.8
CCn1nc(C)cc1C(=O)N=c1n(C)c2cc(C(N)=O)ccc2n1CCC(CCn1c(=NC(=O)c2cc(C)nn2CC)n(C)c2cc(C(N)=O)ccc21)OCC(=O)Nc1cc(C)[nH]n1 (stereo not shown) [Example 22, 1-{3-[(N-5-Methyl-3-pyrazolylcarbamoyl)methoxy]-5-{5-carbamoyl-2-[(1-ethyl-3-methyl-5-pyrazolyl)carbonylimino]-3-methyl-2,3-dihydro-1H-1,3-benzimidazol-1-yl}pentyl}-2-[(1-ethyl-3-methyl-5-pyrazolyl)carbonylimino]-3-methyl-2,3-dihydro-1H-1,3-benzimidazole-5-carboxamide] | 6 | 12.8
CCn1nc(C)cc1C(=O)N=c1n(C)c2cc(C(N)=O)ccc2n1CCC(CCn1c(=NC(=O)c2cc(C)nn2CC)n(C)c2cc(C(N)=O)ccc21)OCC(=O)n1nc(N)cc1C (stereo not shown) [Example 23, 1-{3-[2-(3-Amino-5-methyl-1-pyrazolyl)-2-oxoethoxy]-5-{5-carbamoyl-2-[(1-ethyl-3-methyl-5-pyrazolyl)carbonylimino]-3-methyl-2,3-dihydro-1H-1,3-benzimidazol-1-yl}pentyl}-2-[(1-ethyl-3-methyl-5-pyrazolyl)carbonylimino]-3-methyl-2,3-dihydro-1H-1,3-benzimidazole-5-carboxamide] |  | 6.3
CCn1nc(C)cc1C(=O)N=c1n(C)c2cc(C(N)=O)ccc2n1CCC(CCn1c(=NC(=O)c2cc(C)nn2CC)n(C)c2cc(C(N)=O)ccc21)OCC(=O)n1nc(C)cc1N (stereo not shown) [Example 24, 1-{3-[2-(5-Amino-3-methyl-1-pyrazolyl)-2-oxoethoxy]-5-{5-carbamoyl-2-[(1-ethyl-3-methyl-5-pyrazolyl)carbonylimino]-3-methyl-2,3-dihydro-1H-1,3-benzimidazol-1-yl}pentyl}-2-[(1-ethyl-3-methyl-5-pyrazolyl)carbonylimino]-3-methyl-2,3-dihydro-1H-1,3-benzimidazole-5-carboxamide] |  | 4.8
CCn1nc(C)cc1C(=O)N=c1n(C)c2cc(C(N)=O)ccc2n1CCC(CCn1c(=NC(=O)c2cc(C)nn2CC)n(C)c2cc(C(N)=O)ccc21)OCC(=O)N1CCC[C@H]1c1ccccc1 (stereo partly drawn) [Example 25, 1-(3-{2-[(S)-2-Phenyl-1-pyrrolidinyl]-2-oxoethoxy}-5-{5-carbamoyl-2-[(1-ethyl-3-methyl-5-pyrazolyl)carbonylimino]-3-methyl-2,3-dihydro-1H-1,3-benzimidazol-1-yl}pentyl)-2-[(1-ethyl-3-methyl-5-pyrazolyl)carbonylimino]-3-methyl-2,3-dihydro-1H-1,3-benzimidazole-5-carboxamide] |  | 4.6
CCn1nc(C)cc1C(=O)N=c1n(C)c2cc(C(N)=O)ccc2n1CCC(CCn1c(=NC(=O)c2cc(C)nn2CC)n(C)c2cc(C(N)=O)ccc21)OCC(=O)N1CCC[C@H]1C(=O)N1CCc2cc(OC)ccc2C1 (stereo partly drawn) [Example 26, 1-[3-(2-{(S)-2-[(6-Methoxy-1,2,3,4-tetrahydro-2-isoquinolyl)carbonyl]-1-pyrrolidinyl}-2-oxoethoxy)-5-{5-carbamoyl-2-[(1-ethyl-3-methyl-5-pyrazolyl)carbonylimino]-3-methyl-2,3-dihydro-1H-1,3-benzimidazol-1-yl}pentyl]-2-[(1-ethyl-3-methyl-5-pyrazolyl)carbonylimino]-3-methyl-2,3-dihydro-1H-1,3-benzimidazole-5-carboxamide] | 1.4 | 3.5
CCn1nc(C)cc1C(=O)N=c1n(C)c2cc(C(N)=O)ccc2n1CCC(CCn1c(=NC(=O)c2cc(C)nn2CC)n(C)c2cc(C(N)=O)ccc21)OCC(=O)N1CCC[C@@H]1c1cc(F)ccc1F (stereo partly drawn) [Example 27, 1-(3-{2-[(R)-2-(2,5-Difluorophenyl)-1-pyrrolidinyl]-2-oxoethoxy}-5-{5-carbamoyl-2-[(1-ethyl-3-methyl-5-pyrazolyl)carbonylimino]-3-methyl-2,3-dihydro-1H-1,3-benzimidazol-1-yl}pentyl)-2-[(1-ethyl-3-methyl-5-pyrazolyl)carbonylimino]-3-methyl-2,3-dihydro-1H-1,3-benzimidazole-5-carboxamide] |  | 3.7
CCn1nc(C)cc1C(=O)N=c1n(C)c2cc(C(N)=O)ccc2n1CCC(CCn1c(=NC(=O)c2cc(C)nn2CC)n(C)c2cc(C(N)=O)ccc21)OCC(=O)N1CCC[C@H]1c1nnn[nH]1 (stereo partly drawn) [Example 28, 1-(3-{2-[(S)-2-(1H-Tetrazol-5-yl)-1-pyrrolidinyl]-2-oxoethoxy}-5-{5-carbamoyl-2-[(1-ethyl-3-methyl-5-pyrazolyl)carbonylimino]-3-methyl-2,3-dihydro-1H-1,3-benzimidazol-1-yl}pentyl)-2-[(1-ethyl-3-methyl-5-pyrazolyl)carbonylimino]-3-methyl-2,3-dihydro-1H-1,3-benzimidazole-5-carboxamide] | 3.9 | 8.4
